In US8338443B2, “Chemical compounds” (priority 2006, dated 2012):

Legend:
Aedes aegypti = Aedes aegypti (yellow fever mosquito) larvae test; format: in vivo; details: 48 h, L2 larvae in 96-well plates, 2 days, mortality and growth inhibition
Text: Aedes aegypti (Yellow Fever Mosquito):
10-15 Aedes larvae (L2) together with a nutrition mixture are placed in 96-well microtiter plates. Test solutions at an application rate of 2 ppm are pipetted into the wells. 2 days later, insects were checked for mortality and growth inhibition. The following compounds gave at least 80% control of Aedes aegypti: I-3, II-3, II-7, V-3, XXVII-3, XXVIII-3, XXIX-3, XXXI-3.

Spodoptera littoralis = Spodoptera littoralis (Egyptian cotton leafworm) cotton leaf disc spray test; format: in vivo; details: foliar, 72 h, 200 ppm spray on cotton leaf discs, L1 larvae, mortality, repellent effect, feeding behaviour, growth regulation 3 DAT
Text: Spodoptera littoralis (Egyptian Cotton Leafworm)
Cotton leaf discs were placed on agar in a 24-well microtiter plate and sprayed with test solutions at an application rate of 200 ppm. After drying, the leaf discs were infested with 5 L1 larvae. The samples were checked for mortality, repellent effect, feeding behaviour, and growth regulation 3 days after treatment (DAT). The following compounds gave at least 80% control of Spodoptera littoralis: I-3, II-3, II-7, V-3, XXVII-3, XXVIII-3, XXIX-3, XXXI-3.

SMILES | pest or weed control at 2 ppm (Aedes aegypti) [%] | pest or weed control at 200 ppm (Spodoptera littoralis) [%]
O=C(Nc1ccc2cccnc2c1C1=CCN(C/C=C/c2ccc(Cl)cc2)CC1)c1ccnc(Cl)c1 [XXIX-3] | ≥ 80 | ≥ 80
O=C(Nc1ccc2cccnc2c1C1CCN(C/C=C/c2ccc(Cl)cc2)CC1)c1ccnc(Cl)c1 [Compound I-3] | ≥ 80 | ≥ 80
O=C(Nc1ccc2scnc2c1C1CCN(C/C=C/c2ccc(Cl)cc2)CC1)c1ccnc(Cl)c1 [II-3, 2-Chloro-N-(4-{1-[(E)-3-(4-chloro-phenyl)-allyl]-piperidin-4-yl}-benzothiazol-5-yl)-isonicotinamide] | ≥ 80 | ≥ 80
O=C(Nc1ccc2nccnc2c1C1CCN(C/C=C/c2ccc(Cl)cc2)CC1)c1ccnc(Cl)c1 [XXVIII-3] | ≥ 80 | ≥ 80
O=C(Nc1ccc2scnc2c1C1CCN(C/C=C/c2ccc(OC(F)(F)F)cc2)CC1)c1ccnc(Cl)c1 [II-7] | ≥ 80 | ≥ 80
Cc1nc2c(C3=CCN(C/C=C/c4ccc(Cl)cc4)CC3)c(NC(=O)c3ccnc(Cl)c3)ccc2s1 [XXXI-3] | ≥ 80 | ≥ 80
O=C(Nc1ccc2ncsc2c1C1CCN(C/C=C/c2ccc(Cl)cc2)CC1)c1ccnc(Cl)c1 [Compound V-3] | ≥ 80 | ≥ 80
O=C(Nc1ccc2cn[nH]c2c1C1CCN(C/C=C/c2ccc(Cl)cc2)CC1)c1ccnc(Cl)c1 [XXVII-3] | ≥ 80 | ≥ 80
